Measured values reported in publication PMC11228576 (RSC Advances, 2024).
Where two headings read alike, the source gives them in different places.

Legend:
[1] = target: T1, bovine erythrocyte CA-II (Bos taurus, UniProt P00921); experiment: CA-II in vitro inhibition assay; format: biochemical; conditions: for inhibition at 500 µM: read-out: Percent inhibition (0.5 mM); for Percent inhibition (0.5 mM): compound at 0.5 mM
[2] = target: T1, bovine erythrocyte CA-II; experiment: Enzyme kinetics study of CA-II inhibition; format: biochemical
[3] = read-out: IC50 ± μM (SEM), bovine CA-II, triplicate, SEM

T1 sequence (P00921 whole entry): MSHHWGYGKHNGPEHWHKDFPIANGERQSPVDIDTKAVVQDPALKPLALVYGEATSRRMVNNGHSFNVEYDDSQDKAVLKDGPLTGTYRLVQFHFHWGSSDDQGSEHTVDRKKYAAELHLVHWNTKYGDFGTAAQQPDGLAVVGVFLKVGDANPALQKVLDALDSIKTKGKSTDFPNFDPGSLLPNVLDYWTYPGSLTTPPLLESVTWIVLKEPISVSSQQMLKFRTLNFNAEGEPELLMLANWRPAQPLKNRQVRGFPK

| Structure (SMILES) | IC50 [1] | inhibition at 500 µM [1] | Ki [2] | type of inhibition ([2]; bovine CA-II, Lineweaver–Burk plot) | Percent inhibition (0.5 mM) ([1]; bovine CA-II) | IC50 [1, 3] |
| --- | --- | --- | --- | --- | --- | --- |
| O=[N+]([O-])c1ccc(-c2cs/c(=N/N=C/c3ccc(N4CCOCC4)cc3)n2CCN2CCOCC2)cc1 [Compound 24, 4-{2-[(E)-2-{[(E)-4-morpholinobenzylidene]hydrazineylidene}-4-(4-nitrophenyl)thiazol-3(2H)-yl]ethyl}morpholine] | 14.7 ± 0.29 µM | 90.2% | 9.64 ± 0.007 µM | competitive type of inhibition | – | – |
| Cc1ccc(Cn2c(-c3ccc(Cl)cc3)cs/c2=N/N=C/c2ccc(N3CCOCC3)cc2)cc1 [Compound 16, 4-{4-[(E)-{[(E)-4-(4-chlorophenyl)-3-(4-methylbenzyl)thiazol-2(3H)-ylidene]hydrazone}methyl]phenyl}morpholine] | – | – | – | – | 70.20% | 56.3 ± 1.4 µM |
| O=[N+]([O-])c1cccc(-n2c(-c3ccccc3)cs/c2=N/N=C/c2ccc(N3CCOCC3)cc2)c1 [Compound 8, 4-{4-[(E)-{[(E)-3-(3-nitrophenyl)-4-phenylthiazol-2(3H)-ylidene] hydrazone}methyl]phenyl} morpholine] | – | – | – | – | 83.11% | 27.4 ± 0.47 µM |
| Cc1cccc(C)c1-n1c(-c2ccc(Cl)cc2)cs/c1=N/N=C/c1ccc(N2CCOCC2)cc1 [Compound 21, 4-{4-[(E)-{[(E)-4-(4-chlorophenyl)-3-(2,6-dimethylphenyl)thiazol-2(3H)-ylidene]hydrazone}methyl]phenyl}morpholine] | – | – | – | – | 81.46% | 38.6 ± 0.48 µM |
| Clc1ccc(-c2cs/c(=N/N=C/c3ccc(N4CCOCC4)cc3)n2CCN2CCOCC2)cc1 [Compound 17, 4-{2-[(E)-2-{[(E)-4-morpholinobenzylidene]hydrazineylidene}-4-(4-chlorophenyl)thiazol-3(2H)-yl]ethyl}morpholine] | 51.2 ± 1.26 µM | 71.2% | – | – | – | – |
| Brc1ccc(-c2cs/c(=N/N=C/c3ccc(N4CCOCC4)cc3)n2-c2ccccc2)cc1 [Compound 27, 4-{4-[(E)-{[(E)-4-(4-bromophenyl)-3-phenylthiazol-2(3H)-ylidene]hydrazone}methyl]phenyl}morpholine] | – | – | – | – | 84.95% | 23.8 ± 0.44 µM |
| Clc1ccc(-c2cs/c(=N/N=C/c3ccc(N4CCOCC4)cc3)n2Cc2ccccc2)cc1 [Compound 14, 4-{4-[(E)-{[(E)-3-benzyl-4-(4-chlorophenyl)thiazol-2(3H)-ylidene]hydrazone}methyl]phenyl}morpholine] | – | – | – | – | 80.69% | 35.4 ± 0.64 µM |
| C(=N\N=c1\scc(-c2ccccc2)n1CCN1CCOCC1)/c1ccc(N2CCOCC2)cc1 [Compound 7, 4-{2-[(E)-2-{[(E)-4-morpholinobenzylidene]hydrazineylidene}-4-phenylthiazol-3(2H)-yl]ethyl}morpholine] | 37.2 ± 1.37 µM | 80.9% | – | – | – | – |
| COc1ccc(-n2c(-c3ccc([N+](=O)[O-])cc3)cs/c2=N/N=C/c2ccc(N3CCOCC3)cc2)cc1 [Compound 25, 4-{4-[(E)-{[(E)-3-(4-methoxyphenyl)-4-(4-nitrophenyl)thiazol-2(3H)-ylidene]hydrazone}methyl]phenyl}morpholine] | – | – | – | – | 88.69% | 16.5 ± 0.4 µM |
| Cc1cccc(C)c1-n1c(-c2ccc([N+](=O)[O-])cc2)cs/c1=N/N=C/c1ccc(N2CCOCC2)cc1 [Compound 26, 4-{4-[(E)-{[(E)-3-(2,6-dimethylphenyl)-4-(4-nitrophenyl)thiazol-2(3H)ylidene] hydrazone}methyl]phenyl}morpholine] | – | – | – | – | 89.76% | 17.2 ± 0.36 µM |
| Clc1ccc(-c2cs/c(=N/N=C/c3ccc(N4CCOCC4)cc3)n2CCc2ccccc2)cc1 [Compound 15, 4-{4-[(E)-{[(E)-4-(4-chlorophenyl)-3-phenethylthiazol-2(3H)-ylidene]hydrazone}methyl]phenyl}morpholine] | – | – | – | – | 75.36% | 49.3 ± 1.35 µM |
| C(=N\N=c1\scc(-c2ccccc2)n1CCc1ccccc1)/c1ccc(N2CCOCC2)cc1 [Compound 6, 4-{4-[(E)-{[(E)-3-phenethyl-4-phenylthiazol-2(3H)-ylidene]hydrazone}methyl]phenyl} morpholine] | – | – | – | – | 84.29% | 34.6 ± 1.1 µM |
| COc1ccc(-n2c(-c3ccc(Cl)cc3)cs/c2=N/N=C/c2ccc(N3CCOCC3)cc2)cc1 [Compound 19, 4-{4-[(E)-{[(E)-4-(4-chlorophenyl)-3-(4-methoxyphenyl)thiazol-2(3H)-ylidene] hydrazone}methyl]phenyl}morpholine] | – | – | – | – | 70.35% | 48.2 ± 1.19 µM |
| C(=N\N=c1\scc(-c2ccccc2)n1Cc1ccccc1)/c1ccc(N2CCOCC2)cc1 [Compound 5, 4-{4-[(E)-{[(E)-3-benzyl-4-phenylthiazol-2(3H)-ylidene] hydrazone}methyl]phenyl} morpholine] | – | – | – | – | 86.61% | 26.5 ± 0.68 µM |
| C(=N\N=c1\scc(-c2ccccc2)n1C1CCCCC1)/c1ccc(N2CCOCC2)cc1 [Compound 3, 4-{4-[(E)-{[(E)-3-cyclohexyl-4-phenylthiazol-2(3H)-ylidene]hydrazone}methyl]phenyl} morpholine] | – | – | – | – | 86.44% | 30.2 ± 0.59 µM |
| C(=N\N=c1\scc(-c2ccccc2)n1-c1cccc2ccccc12)/c1ccc(N2CCOCC2)cc1 [Compound 10, 4-{4-[(E)-{[(E)-3-(naphthalen-1-yl)-4-phenylthiazol-2(3H)-ylidene] hydrazone}methyl]phenyl} morpholine] | – | – | – | – | 80.20% | 39.7 ± 1.41 µM |
